Data published in a melting point compilation (Tetko et al.; mined from patent text by program, amines drawn as free bases though some values may be those of a salt).

| Compound | melting point [°C] |
| --- | --- |
| COCC(=O)Nc1cccc(C2(C3CCN(C(=O)c4ccc(C(=O)OC)cc4)CC3)N=C(N)N(C)C2=O)c1 (configuration not stated) | 161 to 163 |
| Cc1nn(-c2ccc([N+](=O)[O-])cc2F)c(=O)[nH]1 | 211 to 212 |
| Cc1cccc2c(=O)n(CCCN3CC=C(c4ccc(Cl)cc4)CC3)c(=O)[nH]c12 | 215 to 217 |
| Cc1c(C(=O)N(N)c2ccccc2)nn(-c2ccc(Cl)cc2Cl)c1-c1ccc(Cl)s1 | 154 to 155 |
| CC(=O)NC[C@H]1CN(c2ccc(N3CCC(n4ncn(C)c4=S)CC3)c(F)c2)C(=O)O1 | 182 to 185 |
| Cc1cccc(NC(=O)NC2N=C(CC(C)C)c3cccc(C)c3N(CC(=O)N3CC4CCC(CC4)C3)C2=O)c1 (configuration not stated) | 134 to 135 |
| O=[N+]([O-])c1cc(O)c(F)cc1Cl | 85 to 86 |
| O=C1CN(c2nccnc2[N+](=O)[O-])CCN1 | 178 to 179 |
| CCNS(=O)(=O)c1ccc(Cl)c(C)c1C#N | 85 to 90 |
| COC(=O)[C@H]1[C@H](NC(C)=O)C(=O)O[C@@H]1C | 105 to 106 |
| CC(C)(C)OC(=O)N1CC=C(c2ccc(Br)cc2)CC1 | 68 to 70 |
| CSC(=Nc1c(C(C)C)cc(Oc2ccc(Cl)cc2)nc1C(C)C)NC(C)(C)C | 95 to 100 |
| CCC(=Cc1cccc([N+](=O)[O-])c1)[N+](=O)[O-] | 68 to 72 |
| O=C(c1ccc([N+](=O)[O-])cc1)N1CCOCC1 | 90 to 91 |
| CN(C)c1nnc(-c2ccc3ncn(-c4ccc(OC(F)(F)F)cc4)c3c2)o1 | 224 to 225 |
| O=C(O)c1cccnc1Oc1cccc(C(F)(F)F)c1 | 149 to 151 |
| O=C(Oc1ccc(Cl)c(OCC2CC2(Cl)Cl)c1)N1CCSC1 (configuration not stated) | 74 to 79.5 |
| O=C(Nc1ccc(S(=O)(=O)C(F)(F)F)cc1Cl)c1c(O)c(C23CC4CC(CC(C4)C2)C3)cc2c1CCC2 | 218 to 219 |
| COC(=O)C1C=CCN2C(=O)C(CCOC3CCCCO3)(Cc3ccccc3)C(=O)N12 (configuration not stated) | 113 to 114 |
| NC(=O)c1nn(C2OC(CO)C(O)C2O)nc1C(N)=O (configuration not stated) | 210 to 212 |
| O=[N+]([O-])c1cc(C(F)(F)F)cc2nc(C(F)(F)F)[nH]c12 | 95 to 97 |
| COC(=O)C1=C(C)NC(N)=C(C(=O)OC(C)C)C1c1ccccc1[N+](=O)[O-] (configuration not stated) | 203 |

| Compound | melting point [°C] |
| --- | --- |
| O=C1CC(O)CC(CCc2c(Cl)cc(Cl)cc2OCc2ccc(C(F)(F)F)cc2)O1 (configuration not stated) | 104 to 105 |
| O=C(CCc1ccc2cc(F)ccc2n1)NO | 208 to 210 |
| N#Cc1cn(-c2c(Cl)cc(C(F)(F)F)cc2Cl)nc1[N+](=O)[O-] | 163 to 165 |
| Nc1ncccc1OCc1c(Cl)cccc1Cl | 141 to 142 |
| OCc1cc(-c2ccc(C(F)(F)F)cc2)on1 | 111 to 113 |
| COc1ccc(CC(Br)C(N)=O)cc1C(=O)NCc1ccc(C(F)(F)F)cc1 (configuration not stated) | 192 to 193 |
| CCc1cnc(CSc2cnc(N)s2)o1 | 119 to 120 |
| O=C1c2c(Cl)cccc2-n2cnc(-c3noc(CN4CCCC4)n3)c2[C@@H]2CCN12 | 117 to 120 |
| CC(Oc1ccc2nc(N)sc2c1)c1c(F)ccc(Cl)c1F (configuration not stated) | 160 |
| CN(Cc1ccc(S(C)=O)cc1)S(=O)(=O)c1cn(S(=O)(=O)N(C)C)c(C#N)n1 (configuration not stated) | 126 |
| CC1(C(O)=Nc2cc(Cl)cc(Cl)c2)CC(F)C1(C)C(=O)O (configuration not stated) | 122 to 123 |
| Cc1cc(-c2cc(C(F)F)n3ncc(C(=O)Nc4cccc(S(=O)(=O)NC5CC5)c4)c3n2)ccc1C(F)(F)F | 199 |
| COc1ccc(OC)c2c1C[C@](O)(C1(C)OCCO1)CC21SCCS1 | 143 to 145 |
| COc1cc(C(=O)NC2CC2)c(Cl)cc1O | 214 to 216 |
| CCCCCCCCCCOc1ccc(C(=O)Oc2ccc(OC(=O)[C@@H]3O[C@@H]3CCC)cc2)cc1Cl | 66.4 |
| Cc1cnc(C)c(NCCc2c[nH]cn2)n1 | 164 to 165 |
| Nc1cccc(S(F)(F)(F)(F)F)c1 | 32 to 35 |
| CC1(C)CCC(C)(C)c2cc(C#Cc3ccc(C#N)cc3)ccc21 | 157 |
| CCCC(=O)Oc1ccc(S(=O)(=O)CS(N)(=O)=O)cc1 | 160 to 161 |
| CCCN1CCc2c(ccc3[nH]c(=O)c(=O)[nH]c23)C1 | 340 to 350 |
| CCCSc1nc(Br)c(Br)n1Cc1cc2c(cc1Cl)OCO2 | 116 |

Other lines, results leading:

| melting point [°C] | Compound |
| --- | --- |
| 117 to 118 | O=C(NCCCCOc1ccc(-n2ccnc2)cc1)c1ccccc1 |
| 68 | O=C(Cc1ccc2nc(CCCOc3cccc(CN4CCCC4)c3)[nH]c2c1)N1CCCC1 |
| 39.5 to 41 | COc1cc([N+](=O)[O-])c2nccc(C)c2c1OCCCCCCCCc1ccccc1 |
| 252 to 254 | NC(=O)c1ncn2c(-c3cccc(Cl)c3)ccnc12 |
| 192 to 194 | O=C(CCl)Nc1ccc(-c2nc3ccccc3s2)cc1I |
| 117 | O=S(=O)(c1ccccc1)c1ccc(S)cc1 |
| 134 to 135 | COC(=O)C1(C(=O)OC)CCC(c2c(-c3ccccc3)n(C)c3ccccc23)CC1 |
| 184 to 186 | ON=Cc1ccc(OCc2coc(-c3ccccc3)n2)cc1 |
| 193 | Cc1nc2cc(C(c3ccccc3)n3ccnc3)ccc2n(N)c1=O (configuration not stated) |
| 220 to 221 | CCN(CC)c1ccc(Nc2nc(N)c(C(=O)c3ccc([N+](=O)[O-])cc3)s2)cc1 |
| > 300 | N#Cc1cc2nc(O)c(O)nc2c2ccccc12 |
| 204 to 205 | CCOc1cc(O)cc2c1C(=O)N(CSc1ccccc1)S2(=O)=O |
| 172 to 175 | Nc1ccccc1C(=O)Nc1cccnc1Cl |
| 101 to 104 | COC(=O)c1ccc2c(CCCNc3ccccn3)nn(C)c2c1 |
| 157 to 158 | NC(=O)Cc1ccc2c(c1)C(=O)c1ccccc1CO2 |
| 139 to 140 | O=C1OC(CN2CCC(O)(c3ccc(Cl)cc3)CC2)CN1c1ccccc1 (configuration not stated) |
| 200 to 201 | CN(C)c1cccc2c(S(=O)(=O)NCCCCn3cnc4c(N)nc5ccccc5c43)cccc12 |
| 169 to 171 | O=C(c1ccccc1SSc1ccccc1C(=O)N1CCC(CO)C1)N1CCC(CO)C1 (configuration not stated) |
| 156 to 157 | N#Cc1c(-c2ccccc2)c(-c2ccccc2)nn(CCCO)c1=O |
| 145 to 146 | CSCCN1C(=O)N2CCOC2(c2ccccc2)c2cc(Cl)ccc21 (configuration not stated) |
| 90 to 91 | Clc1cc(CCc2ccccn2)c2oc(-c3cccs3)nc2c1 |
| 200 | Cc1ccnc(-c2nc(=O)c3ccccc3s2)c1 |
| 172 to 173 | CC(C)CC(=O)Nc1cccc(-c2ccnc3c(-c4ccc5c(c4)OCO5)cnn23)c1 |
| 185 to 186 | O=C(O)CCc1oc(N2CCCCC2)nc1-c1ccc(Cl)cc1 |
| 139 to 140 | CCOc1ccc(C(=O)CCC(=O)Nc2sc(-c3ccccc3)nc2-c2ccccc2)cc1OCC |
| 147 to 148 | OCc1cn(Cc2ccc(OCc3csc(-c4ccccc4)n3)cc2)nc1-c1cccs1 |
| 135 to 138 | COc1ccc2c(c1)C(=O)N(c1ccc(C(C)CO)cc1)C2 (configuration not stated) |
| 217 to 220 | c1csc(-c2nc3ccc(N4CCNCC4)nn3c2-c2ccncc2)c1 |
| 201 to 202 | O=C(Nc1ccccc1)c1nc2ccccc2[nH]1 |
